Results on 18 compounds are retold here after ChEMBL document CHEMBL3758082, “Design, synthesis, and biological evaluation of crenatoside analogues as novel influenza neuraminidase inhibitors” (Eur J Med Chem, 2016).

By inhibition is commonly meant the share of the control response that was lost under treatment. A high value points to strong suppression. The IC50 is the concentration that inhibits the measured activity by half.

The first assay deals with Neuraminidase (Influenza A virus) (UniProt B4URF0). The assay is described as follows: Inhibition of Influenza A virus neuraminidase at 1000 ug/ml.
Sequence of Neuraminidase (Influenza A virus) (B4URF0 as listed by the source): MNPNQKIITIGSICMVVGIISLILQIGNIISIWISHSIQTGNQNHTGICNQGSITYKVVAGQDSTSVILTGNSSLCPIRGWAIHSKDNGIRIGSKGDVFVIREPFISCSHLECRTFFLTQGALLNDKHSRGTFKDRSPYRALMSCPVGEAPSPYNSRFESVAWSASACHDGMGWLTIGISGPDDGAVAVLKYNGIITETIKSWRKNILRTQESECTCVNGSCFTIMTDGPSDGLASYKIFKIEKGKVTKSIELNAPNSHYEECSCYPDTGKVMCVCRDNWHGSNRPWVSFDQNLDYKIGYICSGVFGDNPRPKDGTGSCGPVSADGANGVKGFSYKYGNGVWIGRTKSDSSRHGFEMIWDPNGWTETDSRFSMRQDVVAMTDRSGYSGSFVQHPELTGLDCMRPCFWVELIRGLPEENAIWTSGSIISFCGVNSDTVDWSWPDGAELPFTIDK
As to `O=C(/C=C/c1ccc(O)c(O)c1)O[C@H]1[C@H](O)[C@@H](CO)O[C@H]2OC[C@@H](c3ccccc3)O[C@@H]21`, the inhibition turned out to be 97.4%.

The compound `COc1cccc(/C=C/C(=O)O[C@H]2[C@H](O)[C@@H](CO)O[C@H]3OC[C@H](c4ccccc4)O[C@@H]32)c1` yielded an inhibition of 91.2%.

`O=C(/C=C/c1ccc(O)c(O)c1)O[C@H]1[C@H](O)[C@@H](CO)O[C@H]2OC[C@H](c3ccccc3)O[C@@H]21` showed an inhibition of 94.1%. Compound `OC[C@H]1O[C@H]2OC[C@H](c3ccccc3)O[C@@H]2[C@@H](O)[C@@H]1O` had an inhibition of 3.9%. Same read-out and setting: with `CC(C)[C@@H](N)C(=O)O[C@H]1[C@H](O)[C@@H](CO)O[C@H]2OC[C@H](c3ccccc3)O[C@@H]21` the figure was 16.6%; with `O=C(/C=C/c1ccccc1)O[C@H]1[C@H](O)[C@@H](CO)O[C@H]2OC[C@H](c3ccccc3)O[C@@H]21`, 17.6%. In the case of `O=C(/C=C/c1ccc(O)cc1)O[C@H]1[C@H](O)[C@@H](CO)O[C@H]2OC[C@H](c3ccccc3)O[C@@H]21`, the inhibition was 65%. Same read-out and setting: then `C[C@@H]1O[C@@H](O[C@H]2[C@H](O)[C@@H](CO)O[C@H]3OC[C@@H](c4ccccc4)O[C@@H]32)[C@H](O)[C@H](O)[C@H]1O`, with 11.7%; and `CSCC[C@@H](N)C(=O)O[C@H]1[C@H](O)[C@@H](CO)O[C@H]2OC[C@H](c3ccccc3)O[C@@H]21`, with 88.8%; and `CSCC[C@@H](N)C(=O)O[C@H]1[C@H](O)[C@@H](CO)O[C@H]2OC[C@@H](c3ccccc3)O[C@@H]21`, with 90.3%.

For the compound `OC[C@H]1O[C@H]2OC[C@@H](c3ccccc3)O[C@@H]2[C@@H](O)[C@@H]1O`, the inhibition stood at 16.8%. With `C[C@@H]1O[C@@H](O[C@@H]2[C@H]3O[C@@H](c4ccc(O)c(O)c4)CO[C@@H]3O[C@H](CO)[C@H]2OC(=O)/C=C/c2ccc(O)c(O)c2)[C@H](O)[C@H](O)[C@H]1O` [CRENATOSIDE], the inhibition was 89.2%. On the same count and under the same terms, then `C[C@@H]1O[C@@H](O[C@H]2[C@H](O)[C@@H](COC(=O)/C=C/c3ccc(O)c(O)c3)O[C@H]3OC[C@H](c4ccc(O)c(O)c4)O[C@@H]32)[C@H](O)[C@H](O)[C@H]1O` [ISOCRENATOSIDE], with 86.3%; and `CC(C)[C@@H](N)C(=O)O[C@H]1[C@H](O)[C@@H](CO)O[C@H]2OC[C@@H](c3ccccc3)O[C@@H]21`, with 25.3%; and `O=C(/C=C/c1ccccc1)O[C@H]1[C@H](O)[C@@H](CO)O[C@H]2OC[C@@H](c3ccccc3)O[C@@H]21`, with 29.8%.

As to `O=C(/C=C/c1ccc(O)cc1)O[C@H]1[C@H](O)[C@@H](CO)O[C@H]2OC[C@@H](c3ccccc3)O[C@@H]21`, the inhibition was 66.7%.

`COc1cccc(/C=C/C(=O)O[C@H]2[C@H](O)[C@@H](CO)O[C@H]3OC[C@@H](c4ccccc4)O[C@@H]32)c1` returned an inhibition of 95.9%. As to `C[C@@H]1O[C@@H](O[C@H]2[C@H](O)[C@@H](CO)O[C@H]3OC[C@H](c4ccccc4)O[C@@H]32)[C@H](O)[C@H](O)[C@H]1O`, the inhibition was 8.28%.

In a further assay the target is Neuraminidase (Influenza A virus, UniProt B4URF0). The experiment in a line: Inhibition of Influenza A virus neuraminidase.
Sequence of Neuraminidase (B4URF0 whole entry): as the sequence (B4URF0 as listed by the source) above
Consider `O=C(/C=C/c1ccc(O)c(O)c1)O[C@H]1[C@H](O)[C@@H](CO)O[C@H]2OC[C@@H](c3ccccc3)O[C@@H]21`, for which the half-inhibitory concentration (IC50) is 62.5 µM. Same read-out and setting: with `COc1cccc(/C=C/C(=O)O[C@H]2[C@H](O)[C@@H](CO)O[C@H]3OC[C@H](c4ccccc4)O[C@@H]32)c1` the figure was 97 µM; with `O=C(/C=C/c1ccc(O)c(O)c1)O[C@H]1[C@H](O)[C@@H](CO)O[C@H]2OC[C@H](c3ccccc3)O[C@@H]21`, 67.3 µM. On the same count and under the same terms, then `O=C(/C=C/c1ccc(O)cc1)O[C@H]1[C@H](O)[C@@H](CO)O[C@H]2OC[C@H](c3ccccc3)O[C@@H]21`, with 229 µM; and `CSCC[C@@H](N)C(=O)O[C@H]1[C@H](O)[C@@H](CO)O[C@H]2OC[C@H](c3ccccc3)O[C@@H]21`, with 216 µM; and `CSCC[C@@H](N)C(=O)O[C@H]1[C@H](O)[C@@H](CO)O[C@H]2OC[C@@H](c3ccccc3)O[C@@H]21`, with 189 µM. Same read-out and setting: with `C[C@@H]1O[C@@H](O[C@@H]2[C@H]3O[C@@H](c4ccc(O)c(O)c4)CO[C@@H]3O[C@H](CO)[C@H]2OC(=O)/C=C/c2ccc(O)c(O)c2)[C@H](O)[C@H](O)[C@H]1O` [CRENATOSIDE] the figure was 144 µM; with `C[C@@H]1O[C@@H](O[C@H]2[C@H](O)[C@@H](COC(=O)/C=C/c3ccc(O)c(O)c3)O[C@H]3OC[C@H](c4ccc(O)c(O)c4)O[C@@H]32)[C@H](O)[C@H](O)[C@H]1O` [ISOCRENATOSIDE], 186 µM; with `O=C(/C=C/c1ccc(O)cc1)O[C@H]1[C@H](O)[C@@H](CO)O[C@H]2OC[C@@H](c3ccccc3)O[C@@H]21`, 182 µM. On to `COc1cccc(/C=C/C(=O)O[C@H]2[C@H](O)[C@@H](CO)O[C@H]3OC[C@@H](c4ccccc4)O[C@@H]32)c1`, for which 67 µM corresponded to half-maximal inhibition (IC50).
